Data set [1] deals with T1, Lysine-specific histone demethylase 1A (Homo sapiens, UniProt O60341). The data set is described as follows: Inhibition of LSD1 in human HeLa cells assessed as H3K4me2/H3 ratio at 20 uM after 24 hrs by Western blot analysis in absence of fetal bovine serum. The class given is cell-based. In general terms: In western blotting, separated proteins are transferred to a membrane and probed.

The test system of the next data set is HeLa. The data set is described as follows: Antiproliferative activity against human HeLa cells assessed as inhibition of cell viability at 12.5 to 100 uM treated for 24 hrs measured after 48 hrs by alamar blue assay in absence of fetal bovine serum. The class given is functional, cell-based. For orientation: Resazurin is reduced to fluorescent resorufin, in cell work by metabolically active cells.

Data set [2] deals with T1, Lysine-specific histone demethylase 1A. Put plainly: biochemical.
Description: Inhibition of full length N-terminal His-tagged human recombinant LSD1 (1 to 852 residues) expressed in Escherichia coli BL21(DE3) cells using H3K4me2 peptide as substrate preincubated for 5 mins followed by substrate addition measured for 30 mins by peroxidase coupled assay
For data set [3], the species on record is Homo sapiens.
Data set [4] is filed under the species Homo sapiens. The source holds these as a separate data set.
Data set [5] is filed under the species Homo sapiens. The source holds these as a separate data set.
The species entered for data set [6] is Homo sapiens. This is another data set of the same source.
For data set [7], the target named is Lysine-specific demethylase 5A (Homo sapiens, UniProt P29375).
Description: Inhibition of JARID1A (unknown origin) using H3K4me3 peptide substrate preincubated for 5 mins followed by substrate addition by MALDI-TOF mass spectrometric analysis
The target of data set [8] is T1, Lysine-specific histone demethylase 1A. The note with it: 22 h.
Description: Drug metabolism assessed as LSD1 (unknown origin)-mediated compound-FAD adduct formation after 22 hrs by MALDI-TOF mass spectrometric analysis
Data set [9] addresses T2, Lysine-specific histone demethylase 2 (Homo sapiens, UniProt Q8NB78).
T2 sequence (Q8NB78 whole entry): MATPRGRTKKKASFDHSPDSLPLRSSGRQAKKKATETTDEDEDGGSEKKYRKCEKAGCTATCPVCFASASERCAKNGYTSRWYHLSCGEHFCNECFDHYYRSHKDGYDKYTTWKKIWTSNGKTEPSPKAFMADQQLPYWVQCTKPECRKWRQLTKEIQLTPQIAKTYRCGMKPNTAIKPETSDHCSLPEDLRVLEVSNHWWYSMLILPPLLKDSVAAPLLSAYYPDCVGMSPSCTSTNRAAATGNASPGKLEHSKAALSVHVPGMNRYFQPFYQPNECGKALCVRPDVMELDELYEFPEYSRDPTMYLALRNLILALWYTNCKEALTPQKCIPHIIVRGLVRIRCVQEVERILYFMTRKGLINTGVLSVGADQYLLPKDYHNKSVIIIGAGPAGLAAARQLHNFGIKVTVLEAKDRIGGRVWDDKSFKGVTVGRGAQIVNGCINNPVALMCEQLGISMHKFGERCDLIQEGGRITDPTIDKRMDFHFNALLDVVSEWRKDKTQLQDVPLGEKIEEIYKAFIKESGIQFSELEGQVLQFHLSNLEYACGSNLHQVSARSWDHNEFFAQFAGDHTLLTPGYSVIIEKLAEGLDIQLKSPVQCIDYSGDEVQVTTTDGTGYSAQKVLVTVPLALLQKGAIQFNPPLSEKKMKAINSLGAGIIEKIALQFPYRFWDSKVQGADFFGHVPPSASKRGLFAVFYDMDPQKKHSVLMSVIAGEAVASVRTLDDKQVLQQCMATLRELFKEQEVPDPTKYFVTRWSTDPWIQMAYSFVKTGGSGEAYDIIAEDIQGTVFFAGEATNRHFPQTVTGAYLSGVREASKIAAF
Put plainly: biochemical.
Description: Inhibition of full length N-terminal His-tagged human LSD2 (1 to 822 residues) expressed in Escherichia coli BL21(DE3) cells using H3K4me2 peptide substrate by MALDI-TOF mass spectrometric analysis

Data set [10] concerns the target T3, Amine oxidase [flavin-containing] A (Homo sapiens, UniProt P21397).
T3 sequence (P21397 whole entry): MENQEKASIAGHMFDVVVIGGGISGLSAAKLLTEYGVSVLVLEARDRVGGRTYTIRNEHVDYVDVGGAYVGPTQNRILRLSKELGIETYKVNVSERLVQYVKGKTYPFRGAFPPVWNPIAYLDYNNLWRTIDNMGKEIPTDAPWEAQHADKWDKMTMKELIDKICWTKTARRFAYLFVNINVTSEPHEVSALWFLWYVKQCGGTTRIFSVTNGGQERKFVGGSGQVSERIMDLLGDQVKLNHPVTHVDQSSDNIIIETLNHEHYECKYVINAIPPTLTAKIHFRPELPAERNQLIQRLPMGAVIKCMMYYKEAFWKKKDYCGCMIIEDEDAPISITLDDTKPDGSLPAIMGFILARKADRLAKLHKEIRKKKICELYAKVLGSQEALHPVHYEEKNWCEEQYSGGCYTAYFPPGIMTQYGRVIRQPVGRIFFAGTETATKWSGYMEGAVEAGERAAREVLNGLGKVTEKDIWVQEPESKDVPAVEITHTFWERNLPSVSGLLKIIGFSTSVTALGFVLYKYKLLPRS
The data set is described as follows: biochemical.
Description: Inhibition of human recombinant MAO-A expressed in baculovirus infected BTI insect cells using (4S)-4,5-dihydro-2-(6-hydroxybenzothiazolyl)-4-thiazolecarboxylic acid as substrate incubated for 60 mins by MAO-Glo assay

Data set [11] concerns the target T4, Amine oxidase [flavin-containing] B (Homo sapiens, UniProt P27338).
T4 sequence (P27338 whole entry): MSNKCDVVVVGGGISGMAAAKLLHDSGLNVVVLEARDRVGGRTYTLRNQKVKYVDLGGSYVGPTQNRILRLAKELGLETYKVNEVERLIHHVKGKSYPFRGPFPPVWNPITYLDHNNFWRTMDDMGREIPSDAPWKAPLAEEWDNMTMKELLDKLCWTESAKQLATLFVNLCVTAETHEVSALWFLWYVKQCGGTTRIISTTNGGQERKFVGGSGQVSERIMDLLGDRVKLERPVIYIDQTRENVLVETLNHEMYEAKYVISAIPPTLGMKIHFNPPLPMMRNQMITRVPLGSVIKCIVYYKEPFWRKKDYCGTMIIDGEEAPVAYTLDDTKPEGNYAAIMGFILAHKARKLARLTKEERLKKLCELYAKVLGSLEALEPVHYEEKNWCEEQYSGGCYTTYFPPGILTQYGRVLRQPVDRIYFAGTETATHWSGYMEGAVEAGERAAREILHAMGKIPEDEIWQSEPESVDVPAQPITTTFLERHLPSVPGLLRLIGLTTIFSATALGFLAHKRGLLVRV
Put plainly: biochemical.
Description: Inhibition of human recombinant MAO-B expressed in baculovirus infected BTI insect cells using (4S)-4,5-dihydro-2-(6-hydroxybenzothiazolyl)-4-thiazolecarboxylic acid as substrate incubated for 60 mins by MAO-Glo assay

The source made the active and inactive calls. The rule behind the calls is not given here.

Chain of Lysine-specific demethylase 5A (P29375 whole entry): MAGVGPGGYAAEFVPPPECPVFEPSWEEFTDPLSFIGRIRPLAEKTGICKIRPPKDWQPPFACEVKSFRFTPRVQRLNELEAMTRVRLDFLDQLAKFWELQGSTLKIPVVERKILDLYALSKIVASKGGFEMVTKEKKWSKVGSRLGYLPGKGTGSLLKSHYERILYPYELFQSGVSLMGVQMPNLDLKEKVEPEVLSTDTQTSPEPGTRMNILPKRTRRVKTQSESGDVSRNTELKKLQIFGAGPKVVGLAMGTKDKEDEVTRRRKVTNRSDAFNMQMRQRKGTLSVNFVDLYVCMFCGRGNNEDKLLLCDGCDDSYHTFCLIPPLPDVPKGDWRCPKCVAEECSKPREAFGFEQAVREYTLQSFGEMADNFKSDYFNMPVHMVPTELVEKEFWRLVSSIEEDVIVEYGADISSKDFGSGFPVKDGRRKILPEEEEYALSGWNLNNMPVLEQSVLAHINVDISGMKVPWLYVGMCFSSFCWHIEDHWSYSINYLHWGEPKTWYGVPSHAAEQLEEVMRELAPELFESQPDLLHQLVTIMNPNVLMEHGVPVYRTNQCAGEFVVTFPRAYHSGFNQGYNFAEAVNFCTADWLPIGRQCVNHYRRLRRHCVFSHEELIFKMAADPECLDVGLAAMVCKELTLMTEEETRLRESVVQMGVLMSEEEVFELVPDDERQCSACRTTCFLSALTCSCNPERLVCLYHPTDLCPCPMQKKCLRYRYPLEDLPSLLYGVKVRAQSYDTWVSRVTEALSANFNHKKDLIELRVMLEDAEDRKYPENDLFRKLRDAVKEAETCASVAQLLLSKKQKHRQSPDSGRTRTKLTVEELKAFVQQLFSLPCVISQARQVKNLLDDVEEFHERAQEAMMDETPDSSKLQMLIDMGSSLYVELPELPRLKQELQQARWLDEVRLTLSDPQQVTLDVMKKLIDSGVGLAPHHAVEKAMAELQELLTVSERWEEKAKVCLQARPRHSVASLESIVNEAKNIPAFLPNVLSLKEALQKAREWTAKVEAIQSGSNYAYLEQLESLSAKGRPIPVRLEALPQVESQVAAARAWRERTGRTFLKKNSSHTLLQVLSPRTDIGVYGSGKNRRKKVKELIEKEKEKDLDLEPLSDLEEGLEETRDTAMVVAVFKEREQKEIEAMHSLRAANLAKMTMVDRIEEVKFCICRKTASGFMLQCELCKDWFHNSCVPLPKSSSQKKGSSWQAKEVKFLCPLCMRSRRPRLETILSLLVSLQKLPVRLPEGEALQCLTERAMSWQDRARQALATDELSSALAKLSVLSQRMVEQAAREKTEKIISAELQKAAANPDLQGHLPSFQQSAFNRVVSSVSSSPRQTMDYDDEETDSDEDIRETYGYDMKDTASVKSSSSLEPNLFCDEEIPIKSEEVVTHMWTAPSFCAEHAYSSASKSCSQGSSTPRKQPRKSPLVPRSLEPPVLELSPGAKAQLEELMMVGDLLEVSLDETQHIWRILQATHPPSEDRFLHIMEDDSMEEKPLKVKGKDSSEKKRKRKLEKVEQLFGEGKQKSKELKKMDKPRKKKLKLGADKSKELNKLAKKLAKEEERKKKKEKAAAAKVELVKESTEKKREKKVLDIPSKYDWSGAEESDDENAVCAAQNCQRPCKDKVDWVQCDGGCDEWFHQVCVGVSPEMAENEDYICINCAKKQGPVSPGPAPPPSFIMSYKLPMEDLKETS

Regarding `CC(C)C[C@H](NC(=O)[C@H](CCCCN)NC(=O)[C@H](CO)NC(=O)[C@@H](CCCNC(=N)N)NC(=O)[C@H]1CCCN1)C(=O)N[C@H](C(=O)N[C@@H](CCCNC(=N)N)C(=O)N[C@@H](CCCCNC(=O)[C@@H](CCCNC(=N)N)NC(=O)[C@@H](CCCNC(=N)N)NC(=O)[C@@H](CCCNC(=N)N)NC(=O)[C@@H](CCCNC(=N)N)NC(=O)[C@@H](CCCNC(=N)N)NC(=O)[C@@H](CCCNC(=N)N)NC(=O)[C@@H](CCCNC(=N)N)NC(=O)[C@@H](N)CCCNC(=N)N)C(=O)N1CCC[C@H]1C(=O)N[C@@H](CO)C(=O)N[C@@H](CC(=O)O)C(=O)N1CCC[C@H]1C(=O)N[C@@H](CC(N)=O)C(=O)N[C@@H](CCCNC(=N)N)C(=O)N[C@@H](CCCCN)C(=O)N1CCC[C@H]1C(=O)N[C@H](CC(N)=O)C(=O)N[C@@H](Cc1ccc(O)cc1)C(=O)N[C@@H](CO)C(=O)N[C@@H](CCC(N)=O)C(N)=O)C(C)C`, in [1], the Ratio was determined as 1.06. For the same compound, in the data set on HeLa, the inhibition entry was “inactive”.

By IC50 is commonly meant the point on the concentration scale where inhibition reaches its midpoint. A lower IC50 goes with greater potency in that assay. `C#CCN(C)CCC[C@H](NC(=O)[C@H](CO)NC(=O)[C@H](CCCNC(=N)N)NC(=O)[C@@H]1CCCN1)C(=O)N[C@@H](CC(C)C)C(=O)N[C@H](C(=O)N[C@@H](CCCNC(=N)N)C(=O)N[C@@H](CCCCN)C(=O)N1CCC[C@H]1C(=O)N[C@@H](CO)C(=O)N[C@@H](CC(=O)O)C(=O)N1CCC[C@H]1C(=O)N[C@@H](CC(N)=O)C(=O)N[C@@H](CCCNC(=N)N)C(=O)N[C@@H](CCCCN)C(=O)N1CCC[C@H]1C(=O)N[C@@H](CC(N)=O)C(=O)N[C@@H](Cc1ccc(O)cc1)C(=O)N[C@@H](CO)C(=O)N[C@@H](CCC(N)=O)C(N)=O)C(C)C`: the IC50 in [2] is 17 µM.

`CC(C)C[C@H](NC(=O)[C@H](CCCCN[C@H]1C[C@@H]1c1ccccc1)NC(=O)[C@H](CO)NC(=O)[C@H](CCCNC(=N)N)NC(=O)[C@@H]1CCCN1)C(=O)N[C@H](C(=O)N[C@@H](CCCNC(=N)N)C(=O)N[C@@H](CCCCN)C(=O)N1CCC[C@H]1C(=O)N[C@@H](CO)C(=O)N[C@@H](CC(=O)O)C(=O)N1CCC[C@H]1C(=O)N[C@@H](CC(N)=O)C(=O)N[C@@H](CCCNC(=N)N)C(=O)N[C@@H](CCCCN)C(=O)N1CCC[C@H]1C(=O)N[C@@H](CC(N)=O)C(=O)N[C@@H](Cc1ccc(O)cc1)C(=O)N[C@@H](CO)C(=O)N[C@@H](CCC(N)=O)C(N)=O)C(C)C`: the IC50 in [2] stood at 63 µM.

In the case of `CC(C)C[C@@H](NC(=O)[C@@H](CCCNN)NC(=O)[C@@H](CO)NC(=O)[C@H](CCCNC(=N)N)NC(=O)[C@@H]1CCCN1)C(=O)N[C@@H](C(=O)N[C@H](CCCNC(=N)N)C(=O)N[C@H](CCCCN)C(=O)N1CCC[C@@H]1C(=O)N[C@@H](CO)C(=O)N[C@@H](CC(=O)O)C(=O)N1CCC[C@H]1C(=O)N[C@@H](CC(N)=O)C(=O)N[C@@H](CCCNC(=N)N)C(=O)N[C@H](CCCCNC(=O)[C@H](CCCNC(=N)N)NC(=O)[C@H](CCCNC(=N)N)NC(=O)[C@H](CCCNC(=N)N)NC(=O)[C@H](CCCNC(=N)N)NC(=O)[C@H](CCCNC(=N)N)NC(=O)[C@H](CCCNC(=N)N)NC(=O)[C@H](CCCNC(=N)N)NC(=O)[C@H](N)CCCNC(=N)N)C(=O)N1CCC[C@H]1C(=O)N[C@H](CC(N)=O)C(=O)N[C@@H](Cc1ccc(O)cc1)C(=O)N[C@@H](CO)C(=O)N[C@@H](CCC(N)=O)C(N)=O)C(C)C`, the Ratio IC50 in the data set filed under Homo sapiens [3] is 23; in the data set listed under Homo sapiens [4] it was over 94; in the data set listed under Homo sapiens [5], 94; in the data set listed under Homo sapiens [6], 16. For the same compound, the Ratio in [1] was found to be 1.52. Besides, the inhibition entry in the data set on HeLa was “Active”. The IC50 in data set [7] is 5.05 µM; in data set [2], 0.32 µM; in data set [9], 7.51 µM; in [10] it was over 30 µM; in data set [11], 30 µM. In addition, the Drug metabolism entry in data set [8] is on record as “metabolite_detected”.

`C#CCN(CCC[C@H](NC(=O)[C@H](CO)NC(=O)[C@H](CCCNC(=N)N)NC(=O)[C@@H]1CCCN1)C(=O)N[C@@H](CC(C)C)C(=O)N[C@H](C(=O)N[C@@H](CCCNC(=N)N)C(=O)N[C@@H](CCCCN)C(=O)N1CCC[C@H]1C(=O)N[C@@H](CO)C(=O)N[C@@H](CC(=O)O)C(=O)N1CCC[C@H]1C(=O)N[C@@H](CC(N)=O)C(=O)N[C@@H](CCCNC(=N)N)C(=O)N[C@@H](CCCCN)C(=O)N1CCC[C@H]1C(=O)N[C@@H](CC(N)=O)C(=O)N[C@@H](Cc1ccc(O)cc1)C(=O)N[C@@H](CO)C(=O)N[C@@H](CCC(N)=O)C(N)=O)C(C)C)Cc1ccccc1` displayed an IC50 in data set [2] of 40 µM.

For the origin of these results see ChEMBL document CHEMBL3774333, “Identification of SNAIL1 Peptide-Based Irreversible Lysine-Specific Demethylase 1-Selective Inactivators” (J Med Chem, 2016).
